This is an account of results in patent US7557211B2, “8H-imidazo[4,5-D]thiazolo[4,5-B]pyridine based tricyclic compounds and pharmaceutical compositions comprising same” (Bristol-Myers Squibb Company, priority 2004, dated 2009).

The data set relates to T98. Nature of the data set: Ames testing. The data set is classed as cell-based. The conditions noted are these: T98 with S9 activation. The method, then: A60.7 (370 mg) was dissolved in trifluoroacetic acid and stirred at 50° C. for 2h and 45 min. then at 60° C. for 2 h, then overnight at room temperature. The solvent was removed under reduced pressure and co-evaporated with diethyl ether (2×). Ether (˜20 mL) was added and the mixture sonicated for 1 min. The crude product was collected by filtration and rinsed with an additional portion of ether and dried under vacuum to yield 130 mg of a pale yellow solid. The crude product was washed with several portions of saturated aqueous sodium bicarbonate then water and dried under vacuum. The crude product was purified by automated reverse phase HPLC. The appropriate fractions were combined and azeotroped with heptane to produce 43 mg of a pale yellow solid. The solid was treated with a few milliliters of saturated aqueous sodium bicarbonate solution rinsed with water and dried under vacuum over phosphorus pentoxide and subsequently rinsed with several portions of diethyl ether and dried to yield 36 mg of the desired product. (Caution: This material was subjected to Ames testing and found to be positive in T98 with S9 activation. Suitable precautions should be taken in handling this material) 1H NMR 400 MHz d^6DMSO δ: 8.26 s, 1H, 8.14-8.07 m, 2H, 7.62-7.53, m, 3H, 6.90-6.80, br s, 2H, 4.02, s, 3H.
A general note: The Ames test detects mutagens through reverse mutation in bacteria.

With `Cn1cnc2c(N)nc3nc(-c4ccccc4)sc3c21` [Example A60, 8-methyl-2-phenyl-8H-imidazo[4,5-d]thiazolo[4,5-b]pyridin-5-amine], the Ames testing entry is “positive”.
